One experiment concerns hindlimb blood flow. In words: Hindlimb blood flow increasing action in anesthetized rat. It counts as in vivo, Wistar male rats. The settings on record: 2 hours after administration, solvent group set as 100%. The procedure:
Wistar male rats were used. The test compound was orally administered, and after 2 hours, the hindlimb blood was measured using a laser blood flow imaging apparatus (PIM II, manufactured by Integral Corporation). At 20 minutes before the measurement, 60 mg/kg of pentobarbital was intraperitoneally administered to conduct anesthesia.

Experiment [1] deals with T1, rat EP4 receptor (Rattus norvegicus, UniProt P43114). In words: Evaluation test on EP4 receptor affinity in rat ([3H]PGE2 receptor binding test, membrane fraction). The settings on record: [3H]PGE2 0.3 nM, membrane fraction of rat EP4 expressing HEK293 cells. More on the design: expressed in transfected cells; host or cells: HEK293 cells, transient transfection (Lipofectamine 2000); membrane fraction used. The procedure:
A rat EP4 receptor cDNA was subcloned into an expression vector (pcDNA3.1-V5-His-topo, manufactured by Invitrogen Corporation) to prepare a rat EP4 expression vector. HEK293 cells were cultured in a collagen type I-treated 15 cm dish (manufactured by Asahi Techno Glass Co. Ltd.) to a confluence of 70%. An Opti-MEM culture medium at 1.2 mL/dish and a transfection reagent (Lipofectamine 2000, manufactured by Invitrogen Corporation) at 60 μL/dish were mixed, followed by being left to stand at room temperature for 5 minutes. Then, the rat EP4 receptor expression vector at 15 μg/dish was added thereto, followed by being left to stand at room temperature for 30 minutes. The liquid mixture of the transfection reagent was added into the dish, followed by culturing for 20 to 24 hours. The cell culture was carried out in a CO2 incubator (37° C., 5% CO2).
The culture medium was removed by suction, 10 mL of cooled PBS was added thereto per 15 cm dish, and the cells were scraped using a cell scraper. After washed with cooled PBS (1,200 rpm, 4° C., 5 minutes), suspended in 6 mL/dish of cooled 20 mM Tris-HCl (pH 7.4; manufactured by Nacalai Tesque Inc., 5 mM EDTA included) and homogenized using a Polytron, the homogenate was centrifuged (26,000 rpm, 20 minutes, 4° C.). The obtained precipitate was resuspended in cooled 20 mM Tris-HCl and homogenized again using a Polytron, and the homogenate was centrifuged (26,000 rpm, 20 minutes, 4° C.). The obtained precipitate was resuspended in 50 mM HEPES (pH 7.5; manufactured by Dojindo Laboratories) at 1 mL per dish, homogenized using a Polytron, and freeze-stored at −80° C. as a membrane fraction. At this time, a part thereof was used for the measurement of the protein concentration. Measurement of the protein concentration was carried out using a Protein assay stain (manufactured by Bio-Rad Laboratories) in accordance with a standard Protocol as appended in duplicate.
[^3H]PGE2 50 μL (final concentration 0.3 nM; manufactured by Perkin Elmer Co., Ltd.), 100 μL (20 μg/well) of the membrane fraction prepared from the rat EP4 expression cell, and 50 μL of a test compound were mixed in a 96-well microplate (manufactured by Sumitomo Bakelite Co., Ltd.), incubated at room temperature for 1 hour, then filtered by suction on a microplate (UniFilter-96 GF/B, manufactured by Perkin Elmer Co., Ltd.) using a cell harvester (FilterMate Harvester, manufactured by Perkin Elmer Co., Ltd.), and washed three times with 300 μL/well of a cooled assay buffer (50 mM HEPES, 10 mM MgCl2). Dilution of [^3H]PGE2 and the membrane fraction was carried out using the assay buffer, and dilution of the test compound and the unlabeled PGE2 was carried out using dimethyl sulfoxide and the assay buffer. The UniFilter-96 GF/B was treated by preliminarily washing twice with 200 μL/well of the cooled assay buffer. The UniFilter-96 GF/B after filtration was dried in a dryer overnight, 50 μL/well of a liquid scintillation cocktail (MicroScint20, manufactured by Perkin Elmer Co., Ltd.) was added thereto, and the radioactivity was then measured using a liquid scintillation counter for a microplate (TopCount, manufactured by Perkin Elmer Co., Ltd.). For measurement of the non-specific binding, an unlabeled PGE2 (final concentration 1 μM; manufactured by Cayman Chemical Company) was added. All of the measurements were carried out in duplicate, and the specific binding amount was determined by subtracting the non-specific binding amount from the total binding amount.
According to the test method as described above, the rat EP4 receptor affinity (Ki) of the compound of the formula (I) was measured. […] In this connection, Ex means Example Compound number.

The subject of experiment [2] is LPS-induced TNF-α production in THP-1 cells. As to the kind of experiment: Inhibitory action on LPS-induced TNF-α production in THP-1 cells. It counts as cell-based. The settings on record: Homo sapiens, 3 hours after LPS, ELISA. The procedure:
Human monocytic cell line THP-1 cells were suspended in an assay medium (PRMI-1640 containing 10% fetal bovine serum, 100 unit/mL penicillin G sodium, and 100 μg/mL streptomycin sulfate), and seeded onto a 96-well plate at 1×10^5 cells/well. 50 μL/well of an assay medium containing a test compound was added thereto, followed by incubation at 37° C. for 30 minutes. Further, 50 μL/well of an assay medium containing 1 to 5 μg/mL of LPS was added thereto, and the TNF-α concentration in the assay medium of each well after 3 hours was measured. The measurement was carried out by means of a standard ELISA method. A 96-well plate which had been coated overnight with an anti-human TNF monoclonal antibody (clone: MAb1) (manufactured by Becton, Dickinson and Company) as a capture antibody was washed with a wash buffer (PBS containing 0.05% Tween-20), and PBS containing 10% fetal bovine serum was incubated at room temperature for 1 hour to perform blocking. After washing with a wash buffer, 100 μL/well of the assay medium to be measured was incubated at 4° C. overnight. As the standard material to be measured, a recombinant human TNF (manufactured by Becton, Dickinson and Company) was used. After washing with a wash buffer, 100 μL of a biotinylated anti-human TNF monoclonal antibody (clone: MAb11) as a detection antibody was treated at room temperature for 1 hour. After washing with a wash buffer, it was treated with 100 μL/well of an HRP-labeled Streptavidin (manufactured by Zymed Laboratories, Inc.) at room temperature for 30 minutes, and washed again. Treatment was conducted using 100 μL/well of a TMB (3,3′,5,5′-tetramethylbenzidine) substrate liquid at room temperature for 20 minutes in a dark room. A 2 M sulfuric acid was added thereto at 50 μL/well to stop the reaction, and an absorbance at 450 nm/570 nm was measured by means of a plate reader SPECRA max (manufactured by Molecular Devices Inc.).

For experiment [3], the target named is T1, rat EP4 receptor. In words: EP4 receptor agonistic action in rat (cAMP increasing action in rat EP4 receptor expression CHO-K1 cells). It counts as cell-based. More on the design: expressed in transfected cells. The settings on record: cAMP increasing action by 1 μM PGE2 taken as 100%. The procedure: The agonistic activity was evaluated by the cAMP increasing action in the rat EP4 receptor expression cells. The rat EP4 receptor expression vector was introduced into CHO-K1 cells (American Type Culture Collection) to prepare a rat EP4 receptor stable expression cell line. These cells were seeded onto a 96-well microplate at 2×10^4 cell/well, and used for the experiment the next day. The culture medium of each well was removed by suction, 100 μL/well of an assay culture medium (2 μM indomethacin, 0.1% bovine serum albumin-containing α-MEM) was added thereto, and incubated at 37° C. for 1 hour. The culture medium was removed again by suction, and replaced with 100 μL/well of an assay culture medium comprising a test compound and 1 mM IBMX (3-isobutyl-1-methylxanthine). After incubating at 37° C. for 30 minutes, the culture medium was removed by suction, 100 μL/well of a cell lysate (0.2% Triton-X100-containing phosphate buffer physiological saline) was put thereinto, and the plate was shaken for 10 minutes. Using a cAMP femto 2 kit (manufactured by Cis Bio International), the cAMP concentration in the cell lysate was measured. Further, the cAMP increasing action (%) was calculated with the cAMP increasing action by 1 μM PGE2 was taken as 100%.

T1 sequence (P43114 whole entry): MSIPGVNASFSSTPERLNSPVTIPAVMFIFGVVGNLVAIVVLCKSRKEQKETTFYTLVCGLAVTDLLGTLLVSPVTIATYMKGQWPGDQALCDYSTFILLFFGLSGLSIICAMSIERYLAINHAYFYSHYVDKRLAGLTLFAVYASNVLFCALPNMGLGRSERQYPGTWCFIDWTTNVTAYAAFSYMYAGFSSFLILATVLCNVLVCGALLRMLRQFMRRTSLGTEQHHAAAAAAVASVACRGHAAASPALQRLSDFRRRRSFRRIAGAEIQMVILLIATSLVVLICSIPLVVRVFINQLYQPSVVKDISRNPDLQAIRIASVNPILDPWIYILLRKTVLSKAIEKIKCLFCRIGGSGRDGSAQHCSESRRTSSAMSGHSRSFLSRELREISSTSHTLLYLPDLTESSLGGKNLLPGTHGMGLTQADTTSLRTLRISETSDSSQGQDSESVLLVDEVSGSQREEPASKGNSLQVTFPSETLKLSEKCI

As a reminder, the Ki is a dissociation constant, usually derived from enzyme kinetics or from competition with a known ligand. Read a high Ki as lower affinity. As for `CCc1cccc(N(C)Cc2c(Cl)cc(Cl)c(=O)n2CCc2ccc(C(=O)O)cc2)c1` [Example 106], the “Blood flow relative to the group administered with the solvent” value with hindlimb blood flow (dose 0.3 mg/kg oral) was 126%. The compound also came in with a Ki at rat EP4 receptor [1] of 28 nM.

Regarding `CCOc1ccc2c(c1)N(Cc1c(Cl)cc(Cl)c(=O)n1CCc1ccc(C(=O)O)cc1)CC2` [Example 10, 4-(2-{3,5-dichloro-6-[(6-ethoxy-2,3-dihydro-1H-indol-1-yl)methyl]-2-oxopyridin-1(2H)-yl}ethyl)benzoic acid], the “Blood flow relative to the group administered with the solvent” value in the experiment with hindlimb blood flow (dose 0.3 mg/kg oral) was 124%. Further, at rat EP4 receptor [1], the affinity corresponds to a Ki of 3.2 nM.

A word on the IC50: it is the midpoint of a concentration-inhibition curve. A lower IC50 goes with greater potency. Take `CN(Cc1c(Cl)cc(Cl)c(=O)n1CCc1ccc(C(=O)O)cc1)c1cccc(C(F)(F)F)c1` [Example 159]: the IC50 in experiment [2] was determined as 2.7 nM. Further, the “Blood flow relative to the group administered with the solvent” value in the experiment with hindlimb blood flow (dose 0.1 mg/kg oral) came out at 122%. In addition, at rat EP4 receptor [1], the Ki came out at 3.3 nM.

On to `CCC[C@H]1CCCN1Cc1c(Cl)cc(Cl)c(=O)n1CCc1ccc(-c2n[nH]c(=O)o2)cc1` [Example 208], for which the “cAMP increasing action (%) at 10 μM” value on rat EP4 receptor [3] came out at 83%. For the same compound, affinity at rat EP4 receptor [1] was put at a Ki of 2.9 nM.

In the case of `CCC[C@H]1CCCN1Cc1c(Br)ccc(=O)n1CCc1ccc(C(=O)O)cc1` [Example 207], in the experiment on hindlimb blood flow (dose 1 mg/kg oral), the “Blood flow relative to the group administered with the solvent” value turned out to be 140%.
